≈ marks a conversion by molar mass, not a printed value.
What was measured:
[1] = test system: dermal fibroblasts; conditions: 24 h
[2] = test system: IL-6; assay: IL-6 expression in conditioned media of LPS stimulated dermal fibroblasts by ELISA; assay type: cell-based; conditions: Fibroblast, 24 h, read-out: IC50, suppression of IL-6 expression
Procedure: Dermal fibroblasts were treated with LPS+S1 or S2 at 5-40 μg/ml for 24 h. […] Ibuprofen suppressed IL-6 expression with IC50 of ˜40 μg/ml.

[3] = test system: MCP-1; assay: MCP-1 expression in conditioned media of LPS stimulated dermal fibroblasts by ELISA; assay type: cell-based; conditions: at 40-160 μg/ml

CC(C)Cc1ccc(C(C)C(=O)O)cc1 (stereo not drawn) [Ibuprofen]
concentration with cytotoxic effect (no adverse effects / no cytotoxicity up to the value) [1]: > 160 µg/mL
IC50 [2]: ~40 µg/mL (≈ 194 µM)
suppression of MCP-1 expression [3]: ~10 fold

— patent US20140154342A1, “SANDALWOOD OIL AND ITS USES RELATED TO SKIN DISORDERS” (SANTALIS PHARMACEUTICALS INC., priority 2011, published 2014)
